Reference: patent US9156831B2, “Chemical compounds” (ASTRAZENECA AB, priority 2013, dated 2015)

Assays:
PANC0203 = experiment: Cell proliferation assay (MTS); type: cell-based, human
Procedure: (§1) The sensitivity of a panel of human cancer cell lines to the effects of compounds was determined in a standard proliferation assay.
(§2) Cells were plated in 96 well plates at densities of 1000-6000 cells per well in RPMI media containing 10% FBS. After incubation at 37° C. for 16 hours, various concentrations of compound were added to the assay plates. After incubation for an additional 72 h, the viable cells were determined by the addition of MTS reagent (Promega #3582) to each well for 2 h. […] The formazan product was then quantitated by absorbance at 490 nm, as an indicator of the relative number of live cells. In order to determine the GI50 (concentration at which growth of cells was inhibited by 50%) the relative number of cells present at the time of drug addition was determined by comparison with the MTS readout before the drug was added, and this value was subtracted from the 72 hr value of untreated cells as a measure of cell growth during the assay.

HCT15 = experiment: Cell proliferation assay (MTS); type: cell-based, human
Procedure: as §1
(§3) Cells were plated in 96 well plates at densities of 1000-6000 cells per well in RPMI media containing 10% FBS. After incubation at 37° C. for 16 hours, various concentrations of compound were added to the assay plates. After incubation for an additional 72 h, the viable cells were determined by the addition of MTS reagent (Promega #3582) to each well for 2 h. MTS is a tetrazolium salt that is bioreduced by metabolically active cells in the presence of an electron coupling reagent to formazan. The formazan product was then quantitated by absorbance at 490 nm, as an indicator of the relative number of live cells. In order to determine the GI50 (concentration at which growth of cells was inhibited by 50%) the relative number of cells present at the time of drug addition was determined by comparison with the MTS readout before the drug was added, and this value was subtracted from the 72 hr value of untreated cells as a measure of cell growth during the assay.

H358 = experiment: Cell proliferation assay (MTS); type: cell-based, human
Procedure: as §1, §2

H1299 = experiment: Cell proliferation assay (MTS); type: cell-based, human
Procedure: as §1, §3

MCF7 xenograft = experiment: Tumour growth inhibition, MCF7 xenograft model; type: in vivo, mouse; conditions: Example 3 alone 25 mg/kg twice daily every day; FIG. 12
Procedure: MCF7 is an estrogen receptor positive breast tumour cell line carrying a mutation in the PIKC3CA gene (E545K). […] SCID mice (AZ UK) were transplanted subcutaneously (s.c.) with human breast adenocarcinoma cell line MCF7 (ICRF London) to determine anti-tumour activity of PI3 kinase inhibitors. Mice were implanted with a 0.5 mg 21 day oestrogen pellet (Innovative Research of America) 24 hours prior to cell implantation. 5×10^6 cells in 50% matrigel (BD Bioscience) were injected s.c. on the left flank of the animals.
Animals were randomised into groups of 10-15 when tumours reached a volume of ˜200-300 mm^3 and treatment commenced. Animals were dosed for 3-4 weeks by peroral route, with compound in a suitable vehicle at defined doses and schedules. Tumours were measured two-three times weekly by caliper and volume of tumours calculated using elliptical formula (pi/6×width×width×length).

MDAMB453 = experiment: Cell proliferation assay (MTS); type: cell-based, human
Procedure: (§4) The sensitivity of a panel of human cancer cell lines to the effects of compounds was determined in a standard proliferation assay. Cell lines were sourced through the AstraZeneca Cell Bank.
as §3

MHCC97L = experiment: Cell proliferation assay (MTS); type: cell-based, human
Procedure: as §4, §3

BXPC3 = experiment: Cell proliferation assay (MTS); type: cell-based, human
Procedure: as §1, §2

CCn1nc(C2CCN(C(=O)CCO)CC2)nc1-c1cnc(N)c(-c2nnc(C(C)(C)C)o2)n1 [Example 3, 1-(4-(5-(5-amino-6-(5-tert-butyl-1,3,4-oxadiazol-2-yl)pyrazin-2-yl)-1-ethyl-1H-1,2,4-triazol-3-yl)piperidin-1-yl)-3-hydroxypropan-1-one]
Category (PANC0203): Sensitive (sensitive (GI50<=1.0 μM))
GI50 (PANC0203; Homo sapiens, Panc 02.03, Pancreas, PIK3CA WT): 963 nM
Category (HCT15): Resistant (resistant (GI50>1.0 μM))
GI50 (HCT15; Homo sapiens, HCT-15, Colon, PIK3CA MUT): 7.27 µM
Category (H358): Resistant (resistant (GI50>1.0 μM))
GI50 (H358; Homo sapiens, NCI-H358, Lung, PIK3CA WT): 4.64 µM
Category (H1299): Resistant (resistant (GI50>1.0 μM))
GI50 (H1299; Homo sapiens, NCI-H1299, Lung, PIK3CA WT): 30 µM
tumour growth (MCF7 xenograft): caused some tumour regression
Category (MDAMB453): Sensitive (sensitive (GI50<=1.0 μM))
GI50 (MDAMB453; Homo sapiens, MDA-MB-453, Breast, PIK3CA MUT): 456 nM
Category (MHCC97L): Resistant (resistant (GI50>1.0 μM))
GI50 (MHCC97L; Homo sapiens, Liver, PIK3CA WT): 3.35 µM
Category (BXPC3): Resistant (resistant (GI50>1.0 μM))
GI50 (BXPC3; Homo sapiens, BXPC-3, Pancreas, PIK3CA WT): 14.1 µM
